Measured values: the NIST ThermoML archive (doi:10.1021/je900278v)

Experiments:
[1] = xn = mol fraction of the nth substance listed; settings: 101 kPa, Liquid; for viscosity: 293.15 K, Capillary tube (Ostwald / Ubbelohde) method; for mass density: 298.15 K
[2] = 101 kPa, Liquid; for viscosity: 293.15 K, Capillary tube (Ostwald / Ubbelohde) method; for mass density: 298.15 K

CCCCCCO [hexan-1-ol] + ClC(Cl)=C(Cl)Cl
[1], x2 = 0
Settings	mass density [kg/m3]	viscosity [mPa·s]
–	818.856	5.291

ClC(Cl)=C(Cl)Cl [tetrachloroethene] + CCCCCCO
[1]
Settings	mass density [kg/m3]	viscosity [mPa·s]
x1 = 0.0688	864.637	4.756
x1 = 0.123	901.521	4.351
x1 = 0.2457	987.759	3.493
x1 = 0.3618	1072.99	2.772
x1 = 0.4502	1140.46	2.308
x1 = 0.5583	1226.3	1.853
x1 = 0.6518	1303.62	1.534
x1 = 0.7068	1350.53	1.382
x1 = 0.7419	1381.18	1.297
x1 = 0.7797	1414.65	1.213
x1 = 0.8315	1461.44	1.116
x1 = 0.8718	1498.8	1.051
x1 = 0.9179	1542.25	0.982
x1 = 0.9504	1573.61	0.942
x1 = 1	1622.74	0.89

ClC(Cl)=C(Cl)Cl [tetrachloroethene]
[2]
Settings	mass density [kg/m3]	viscosity [mPa·s]
–	1622.74	0.89

CCCCCCO [hexan-1-ol]
[2]
Settings	mass density [kg/m3]	viscosity [mPa·s]
–	818.856	5.291

BrCCBr [1,2-dibromoethane]
[2]
Settings	mass density [kg/m3]	viscosity [mPa·s]
–	2179.59	1.733

BrCCBr [1,2-dibromoethane] + CCCCCCO
[1]
Settings	mass density [kg/m3]	viscosity [mPa·s]
x1 = 0.0402	856.608	4.925
x1 = 0.0682	883.413	4.703
x1 = 0.1276	941.916	4.275
x1 = 0.2056	1022.36	3.781
x1 = 0.2686	1090.47	3.412
x1 = 0.3892	1228.97	2.862
x1 = 0.4277	1276.43	2.711
x1 = 0.5444	1427.13	2.325
x1 = 0.6405	1562	2.07
x1 = 0.7326	1701.64	1.877
x1 = 0.8519	1899.69	1.726
x1 = 0.9273	2036.52	1.69
x1 = 0.9587	2096.51	1.692
x1 = 0.9782	2135.29	1.71
x1 = 1	2179.59	1.733

ClCCCl [1,2-dichloroethane] + CCCCCCO
[1]
Settings	mass density [kg/m3]	viscosity [mPa·s]
x1 = 0.037	828.769	5.008
x1 = 0.0769	839.847	4.696
x1 = 0.1499	860.583	4.191
x1 = 0.2147	879.725	3.787
x1 = 0.2935	904.954	3.292
x1 = 0.3952	940.475	2.726
x1 = 0.4532	962.107	2.405
x1 = 0.5596	1005.05	1.894
x1 = 0.6113	1027.55	1.677
x1 = 0.6971	1067.98	1.372
x1 = 0.7791	1111.06	1.137
x1 = 0.8563	1155.16	0.977
x1 = 0.9335	1205.43	0.873
x1 = 0.979	1236.99	0.833
x1 = 1	1252.77	0.827

CCCCCCO [hexan-1-ol] + ClCCCl
[1], x2 = 0
Settings	mass density [kg/m3]	viscosity [mPa·s]
–	818.856	5.291

ClCCCl [1,2-dichloroethane]
[2]
Settings	mass density [kg/m3]	viscosity [mPa·s]
–	1252.77	0.827

CCCCCCO [hexan-1-ol] + BrCCBr
[1], x2 = 0
Settings	mass density [kg/m3]	viscosity [mPa·s]
–	818.856	5.291
